Laboratory results: BindingDB's records for doi:10.1016/j.chembiol.2011.03.012 (Riken Advanced Science Institute, 2011)
pIC50: −log10 of the molar value.

Target: DNA topoisomerase 2-alpha (Homo sapiens, UniProt P11388)
Test: Inhibition Assay
Conditions: pH 7.5; 4 °C
Source text: In vitro inhibition of TOP2 alpha activity by BNS derivatives.

Chain of DNA topoisomerase 2-alpha (P11388 whole entry): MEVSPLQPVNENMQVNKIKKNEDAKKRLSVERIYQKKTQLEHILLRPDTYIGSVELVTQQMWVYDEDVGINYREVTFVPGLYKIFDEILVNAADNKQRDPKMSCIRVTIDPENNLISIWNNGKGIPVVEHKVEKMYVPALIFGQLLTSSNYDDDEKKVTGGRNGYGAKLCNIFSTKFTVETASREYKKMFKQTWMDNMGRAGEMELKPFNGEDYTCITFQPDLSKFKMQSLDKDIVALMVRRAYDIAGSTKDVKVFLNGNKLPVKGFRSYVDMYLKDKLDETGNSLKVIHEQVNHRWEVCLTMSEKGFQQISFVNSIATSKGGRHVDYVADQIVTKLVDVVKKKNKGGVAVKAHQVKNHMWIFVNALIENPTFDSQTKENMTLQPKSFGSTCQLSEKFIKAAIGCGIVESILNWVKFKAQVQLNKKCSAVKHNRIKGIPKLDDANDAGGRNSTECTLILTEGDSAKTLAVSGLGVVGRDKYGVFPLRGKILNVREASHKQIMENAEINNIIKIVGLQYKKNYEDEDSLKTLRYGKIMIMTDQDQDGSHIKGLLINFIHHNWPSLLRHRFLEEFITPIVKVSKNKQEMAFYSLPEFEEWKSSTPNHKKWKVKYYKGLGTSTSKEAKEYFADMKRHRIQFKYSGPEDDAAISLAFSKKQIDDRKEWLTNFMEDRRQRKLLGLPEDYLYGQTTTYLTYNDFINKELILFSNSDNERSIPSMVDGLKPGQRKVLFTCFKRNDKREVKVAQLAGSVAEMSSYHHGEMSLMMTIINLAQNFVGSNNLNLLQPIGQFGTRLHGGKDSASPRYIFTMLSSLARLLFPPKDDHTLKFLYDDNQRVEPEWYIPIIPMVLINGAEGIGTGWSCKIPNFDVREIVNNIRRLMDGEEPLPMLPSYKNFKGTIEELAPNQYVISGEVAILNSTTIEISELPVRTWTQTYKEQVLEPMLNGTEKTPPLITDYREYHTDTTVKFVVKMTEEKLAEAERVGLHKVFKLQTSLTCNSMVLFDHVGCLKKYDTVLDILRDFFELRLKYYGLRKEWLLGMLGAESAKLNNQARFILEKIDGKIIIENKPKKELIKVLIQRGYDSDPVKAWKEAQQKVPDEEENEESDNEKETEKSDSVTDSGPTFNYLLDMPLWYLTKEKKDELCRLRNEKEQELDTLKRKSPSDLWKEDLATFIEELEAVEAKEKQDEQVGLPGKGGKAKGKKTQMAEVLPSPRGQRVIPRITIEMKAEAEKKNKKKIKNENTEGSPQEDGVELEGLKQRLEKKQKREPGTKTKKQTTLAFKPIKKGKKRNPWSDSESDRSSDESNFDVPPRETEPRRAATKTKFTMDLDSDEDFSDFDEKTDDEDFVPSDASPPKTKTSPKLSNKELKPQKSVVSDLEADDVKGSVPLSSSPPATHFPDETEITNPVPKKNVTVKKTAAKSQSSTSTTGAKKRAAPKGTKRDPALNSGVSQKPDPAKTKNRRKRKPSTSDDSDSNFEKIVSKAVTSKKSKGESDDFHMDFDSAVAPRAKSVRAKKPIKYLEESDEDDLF

Compound | pIC50
CCCc1cc(=O)oc2c(C(=O)N3CCCc4ccccc43)c(OC)cc(OC)c12 [BNS-22] | 5.55
CCCc1cc(=O)oc2c(C(=O)N3CCc4ccccc4C3)c(OC)cc(OC)c12 [BNS-52] | < 4.00
CCCc1cc(=O)oc2c(C(=O)N3CCC(Cc4ccccc4)CC3)c(OC)cc(OC)c12 [BNS-53] | < 4.00

The remaining lines, values ahead:

pIC50 | Compound
< 4.00 | CCCc1cc(=O)oc2c(C(=O)N3CCCCC3)c(OC)cc(OC)c12 [BNS-54]
5.09 | COC(=O)Cc1cc(=O)oc2c(C(=O)N3CCCc4ccccc43)c(OC)cc(OC)c12 [BNS-65]
